# Laboratory results published in patent US10004701B2, “Methods and compositions for treating infection” (UNIVERSITY OF ROCHESTER, priority 2012, dated 2018).
# Where a name gives a salt, the structure may show the parent alone. Read-outs that look alike come from different tables or passages of the source.
# Tests used:
# Test in all cases: AK assay 384-well format, Prestwick library screening
# [1] = tested on: A. baumannii strain 98-37-09; format: cell-based, Acinetobacter baumannii; settings: 50 μM final drug concentration; for fold induction at 50 µM: Acinetobacter baumannii, 983709, 3 h
# E. cloacae = format: cell-based, Enterobacter cloacae; settings: 50 μM final drug concentration; for fold induction at 50 µM: Enterobacter cloacae, 3 h
# P. aeruginosa = format: cell-based, Pseudomonas aeruginosa; settings: 50 μM final drug concentration; for fold induction at 50 µM: Pseudomonas aeruginosa, 3 h
# K. pneumoniae = format: cell-based, Klebsiella pneumoniae; settings: 50 μM final drug concentration; for fold induction at 50 µM: Klebsiella pneumoniae, 3 h
# [2] = tested on: S. aureus strain USA300-0114; format: cell-based, Staphylococcus aureus; settings: 50 μM final drug concentration; for fold induction at 50 µM: Staphylococcus aureus, USA300, 3 h
# E. faecium = format: cell-based, Enterococcus faecium; settings: 50 μM final drug concentration; for fold induction at 50 µM: Enterococcus faecium, 3 h
# E. coli = format: cell-based, Escherichia coli; settings: 50 μM final drug concentration; for fold induction at 50 µM: Escherichia coli, 3 h
# [3] = planktonic A. baumannii, cutoff for positive-scoring molecules 3-fold increase, read-out: AK-based Prestwick Library Screening Results, A. baumannii (increase in extracellular AK activity)
# [4] = planktonic E. cloacae, cutoff for positive-scoring molecules 3-fold increase, read-out: AK-based Prestwick Library Screening Results, E. cloacae (increase in extracellular AK activity)
# [5] = planktonic P. aeruginosa, cutoff for positive-scoring molecules 3-fold increase, read-out: AK-based Prestwick Library Screening Results, P. aeruginosa (increase in extracellular AK activity)
# [6] = planktonic K. pneumoniae, cutoff for positive-scoring molecules 3-fold increase, read-out: AK-based Prestwick Library Screening Results, K. pneumoniae (increase in extracellular AK activity)
# [7] = planktonic S. aureus, cutoff for positive-scoring molecules 3-fold increase, read-out: AK-based Prestwick Library Screening Results, S. aureus (increase in extracellular AK activity)
# [8] = planktonic E. faecium, cutoff for positive-scoring molecules 3-fold increase, read-out: AK-based Prestwick Library Screening Results, E. faecium (increase in extracellular AK activity)
# [9] = planktonic E. coli, cutoff for positive-scoring molecules 3-fold increase, read-out: AK-based Prestwick Library Screening Results, E. coli (increase in extracellular AK activity)
# [10] = 384-well format, cutoff for positive-scoring molecules 3-fold increase, read-out: AK-based Prestwick Library Screening Results, A. baumannii (increase in extracellular AK activity)
# [11] = 384-well format, cutoff for positive-scoring molecules 3-fold increase, read-out: AK-based Prestwick Library Screening Results, E. cloacae (increase in extracellular AK activity)
# [12] = 384-well format, cutoff for positive-scoring molecules 3-fold increase, read-out: AK-based Prestwick Library Screening Results, P. aeruginosa (increase in extracellular AK activity)
# [13] = 384-well format, cutoff for positive-scoring molecules 3-fold increase, read-out: AK-based Prestwick Library Screening Results, K. pneumoniae (increase in extracellular AK activity)
# [14] = 384-well format, cutoff for positive-scoring molecules 3-fold increase, read-out: AK-based Prestwick Library Screening Results, S. aureus (increase in extracellular AK activity)
# [15] = 384-well format, cutoff for positive-scoring molecules 3-fold increase, read-out: AK-based Prestwick Library Screening Results, E. faecium (increase in extracellular AK activity)
# [16] = 384-well format, cutoff for positive-scoring molecules 3-fold increase, read-out: AK-based Prestwick Library Screening Results, E. coli (increase in extracellular AK activity)
molecule,measurement,setting,value
Colistin sulfate,"AK-based Prestwick Library Screening Results, A. baumannii (increase in extracellular AK activity)","[1]; planktonic A. baumannii, […]",10.0
same,"AK-based Prestwick Library Screening Results, E. cloacae (increase in extracellular AK activity)","E. cloacae; planktonic E. cloacae, […]",0.7
same,"AK-based Prestwick Library Screening Results, P. aeruginosa (increase in extracellular AK activity)","P. aeruginosa; planktonic P. aeruginosa, […]",23.6
same,"AK-based Prestwick Library Screening Results, K. pneumoniae (increase in extracellular AK activity)","K. pneumoniae; planktonic K. pneumoniae, […]",24.1
same,"AK-based Prestwick Library Screening Results, S. aureus (increase in extracellular AK activity)","[2]; planktonic S. aureus, […]",0.6
same,"AK-based Prestwick Library Screening Results, E. faecium (increase in extracellular AK activity)","E. faecium; planktonic E. faecium, […]",1.0
same,"AK-based Prestwick Library Screening Results, E. coli (increase in extracellular AK activity)","E. coli; planktonic E. coli, […]",42.2
CO[C@@]1(NC(=O)CSCC#N)C(=O)N2C(C(=O)O)=C(CSc3nnnn3C)CS[C@@H]21 [Cefmetazole sodium salt],fold induction at 50 µM,"[1]; cutoff for positive-scoring molecules 3-fold increase, read-out: AK-based Prestwick Library Screening Results, A. baumannii (fold increase in extracellular AK activity)",1.4
same,fold induction at 50 µM,"E. cloacae; cutoff for positive-scoring molecules 3-fold increase, read-out: AK-based Prestwick Library Screening Results, E. cloacae (fold increase in extracellular AK activity)",1.6
same,fold induction at 50 µM,"P. aeruginosa; cutoff for positive-scoring molecules 3-fold increase, read-out: AK-based Prestwick Library Screening Results, P. aeruginosa (fold increase in extracellular AK activity)",1
same,fold induction at 50 µM,"K. pneumoniae; cutoff for positive-scoring molecules 3-fold increase, read-out: AK-based Prestwick Library Screening Results, K. pneumoniae (fold increase in extracellular AK activity)",4.6
same,fold induction at 50 µM,"[2]; cutoff for positive-scoring molecules 3-fold increase, read-out: AK-based Prestwick Library Screening Results, S. aureus (fold increase in extracellular AK activity)",5
same,fold induction at 50 µM,"E. faecium; cutoff for positive-scoring molecules 3-fold increase, read-out: AK-based Prestwick Library Screening Results, E. faecium (fold increase in extracellular AK activity)",1.4
same,fold induction at 50 µM,"E. coli; cutoff for positive-scoring molecules 3-fold increase, read-out: AK-based Prestwick Library Screening Results, E. coli (fold increase in extracellular AK activity)",20
CNCCCC12CCC(c3ccccc31)c1ccccc12 [Maprotiline hydrochloride],fold induction at 50 µM,[1]; [3],0.8
same,fold induction at 50 µM,E. cloacae; [4],0.9
same,fold induction at 50 µM,P. aeruginosa; [5],0.9
same,fold induction at 50 µM,K. pneumoniae; [6],0.6
same,fold induction at 50 µM,[2]; [7],1.1
same,fold induction at 50 µM,E. faecium; [8],0.8
same,fold induction at 50 µM,E. coli; [9],0.8
Cn1cnc([N+](=O)[O-])c1Sc1ncnc2nc[nH]c12 [Azathioprine],fold induction at 50 µM,[1]; [10],0.7
same,fold induction at 50 µM,E. cloacae; [11],0.8
same,fold induction at 50 µM,P. aeruginosa; [12],0.6
same,fold induction at 50 µM,K. pneumoniae; [13],0.5
same,fold induction at 50 µM,[2]; [14],0.7
same,fold induction at 50 µM,E. faecium; [15],0.8
same,fold induction at 50 µM,E. coli; [16],0.6
Cl.O=c1[nH]oc2c1CCNC2 [THIP Hydrochloride],"AK-based Prestwick Library Screening Results, A. baumannii (fold increase in extracellular AK activity)",[1]; […],0.6
same,"AK-based Prestwick Library Screening Results, E. cloacae (fold increase in extracellular AK activity)",E. cloacae; […],0.8
same,"AK-based Prestwick Library Screening Results, P. aeruginosa (fold increase in extracellular AK activity)",P. aeruginosa; […],0.6
same,"AK-based Prestwick Library Screening Results, K. pneumoniae (fold increase in extracellular AK activity)",K. pneumoniae; […],0.6
same,"AK-based Prestwick Library Screening Results, S. aureus (fold increase in extracellular AK activity)",[2]; […],0.6
same,"AK-based Prestwick Library Screening Results, E. faecium (fold increase in extracellular AK activity)",E. faecium; […],1.0
same,"AK-based Prestwick Library Screening Results, E. coli (fold increase in extracellular AK activity)",E. coli; […],0.6
Cc1cc(NC(=O)C2=C(O)c3ccccc3S(=O)(=O)N2C)no1 [Isoxicam],fold induction at 50 µM,[1]; [10],1
same,fold induction at 50 µM,E. cloacae; [11],1.4
same,fold induction at 50 µM,P. aeruginosa; [12],1
same,fold induction at 50 µM,K. pneumoniae; [13],1
same,fold induction at 50 µM,[2]; [14],1
same,fold induction at 50 µM,E. faecium; [15],1
same,fold induction at 50 µM,E. coli; [16],1.2
CCN(CC)CCNc1ccc(CO)c2sc3ccccc3c(=O)c12 [Hycanthone],fold induction at 50 µM,[1]; [3],0.8
same,fold induction at 50 µM,E. cloacae; [4],1.1
same,fold induction at 50 µM,P. aeruginosa; [5],0.8
same,fold induction at 50 µM,K. pneumoniae; [6],0.7
same,fold induction at 50 µM,[2]; [7],0.8
same,fold induction at 50 µM,E. faecium; [8],1.2
same,fold induction at 50 µM,E. coli; [9],0.9
Cc1nc2ccccn2c(=O)c1CCN1CCC(C(=O)c2ccc(F)cc2)CC1 [Pirenperone],fold induction at 50 µM,"[1]; planktonic, cutoff for positive 3-fold increase, read-out: AK-based Prestwick Library Screening Results, A. baumannii (fold increase in extracellular AK activity)",1.2
same,fold induction at 50 µM,"E. cloacae; planktonic, cutoff for positive 3-fold increase, read-out: AK-based Prestwick Library Screening Results, E. cloacae (fold increase in extracellular AK activity)",1.5
same,fold induction at 50 µM,"P. aeruginosa; planktonic, cutoff for positive 3-fold increase, read-out: AK-based Prestwick Library Screening Results, P. aeruginosa (fold increase in extracellular AK activity)",1.2
same,fold induction at 50 µM,"K. pneumoniae; planktonic, cutoff for positive 3-fold increase, read-out: AK-based Prestwick Library Screening Results, K. pneumoniae (fold increase in extracellular AK activity)",1
same,fold induction at 50 µM,"[2]; planktonic, cutoff for positive 3-fold increase, read-out: AK-based Prestwick Library Screening Results, S. aureus (fold increase in extracellular AK activity)",1.1
same,fold induction at 50 µM,"E. faecium; planktonic, cutoff for positive 3-fold increase, read-out: AK-based Prestwick Library Screening Results, E. faecium (fold increase in extracellular AK activity)",1.1
same,fold induction at 50 µM,"E. coli; planktonic, cutoff for positive 3-fold increase, read-out: AK-based Prestwick Library Screening Results, E. coli (fold increase in extracellular AK activity)",1.1
COc1ccc(-c2ccc(=N)n(CCCC(=O)O)n2)cc1 [Gabazine],fold induction at 50 µM,[1]; [3],1.1
same,fold induction at 50 µM,E. cloacae; [4],1.3
same,fold induction at 50 µM,P. aeruginosa; [5],1
same,fold induction at 50 µM,K. pneumoniae; [6],0.8
same,fold induction at 50 µM,[2]; [7],1.1
same,fold induction at 50 µM,E. faecium; [8],1.1
same,fold induction at 50 µM,E. coli; [9],1
